Values after ≈ are worked out from the molar mass of the structure shown.

The first test relates to Pseudomonas aeruginosa FP 1380. The test is described as follows: In vitro antibacterial activity (MIC) by the two-fold agar-plate dilution method. The test is classed as cell-based. Particulars: FP1380; test strain Pseudomonas aeruginosa FP 1380; heart infusion agar; incubation at 37° C. for 20 hours; read-out: MIC (minimal inhibitory concentration). As for the experimental part:
In vitro antibacterial activity was determined by the two-fold agar-plate dilution method as described below.
One loopful of an overnight culture of each test strain in Trypticase-soy broth (10^6 viable cells per ml) was streaked on heart infusion agar (HI-agar) containing graded concentrations of representative test compound, and the minimal inhibitory concentration (MIC) was expressed in μg/ml after incubation at 37° C. for 20 hours.
In the case of `CC(C)(O/N=C(\C(=O)N[C@@H]1C(=O)N2C(C(=O)[O-])=C(C[n+]3ccccc3)CS[C@H]12)c1csc(N)n1)C(=O)O` [Ceftazidime, reference compound], the MIC is 128 µg/mL (≈ 234 µM).
Same read-out and setting: in the case of `Cn1c(N)c(NC(=N)N)c[n+]1CC1=C(C(=O)O)N2C(=O)[C@@H](NC(=O)/C(=N\OC(C)(C)C(=O)O)c3nsc(N)n3)[C@H]2SC1.O=S(=O)([O-])O` [Compound (e), 7β-[(Z)-2-(5-amino-1,2,4-thiadiazol-3-yl)-2-(1-carboxy-1-methylethoxyimino)acetamido]-3-(3-amino-4-guanidino-2-methyl-1-pyrazolio)methyl-3-cephem-4-carboxylic acid hydrogen sulfate] it was 1 µg/mL; in that of `Cn1c(N)c(NC(=O)NCCN)c[n+]1CC1=C(C(=O)O)N2C(=O)[C@@H](NC(=O)/C(=N\OC(C)(C)C(=O)O)c3nsc(N)n3)[C@H]2SC1.O=S(=O)([O-])O` [Compound (d), 7β-[(Z)-2-(5-amino-1,2,4-thiadiazol-3-yl)-2-(1-carboxy-1-methylethoxyimino)acetamido]-3-{3-amino-4-[3-(2-aminoethyl)ureido]-2-methyl-1-pyrazolio}methyl-3-cephem-4-carboxylic acid hydrogen sulfate], 2 µg/mL.
The same measure, in the same setting: in the case of `Cn1c(N)c(NC(=O)CCN)c[n+]1CC1=C(C(=O)[O-])N2C(=O)[C@@H](NC(=O)/C(=N\OC(C)(C)C(=O)O)c3nsc(N)n3)[C@H]2SC1` [Compound (b), 7β-[(Z)-2-(5-amino-1,2,4-thiadiazol-3-yl)-2-(1-carboxy-1-methylethoxyimino)acetamido]-3-[3-amino-4-(3-aminopropionamido)-2-methyl-1-pyrazolio]methyl-3-cephem-4-carboxylate] it was 1 µg/mL (≈ 1.53 µM); in that of `Cn1c(N)c(NC(=O)CN)c[n+]1CC1=C(C(=O)O)N2C(=O)[C@@H](NC(=O)/C(=N\OC(C)(C)C(=O)O)c3nsc(N)n3)[C@H]2SC1.O=S(=O)([O-])O` [Compound (c), 7β-[(Z)-2-(5-amino-1,2,4-thiadiazol-3-yl)-2-(1-carboxy-1-methylethoxyimino)acetamido]-3-[3-amino-4-(aminoacetyl)amino-2-methyl-1-pyrazolio]methyl-3-cephem-4-carboxylic acid hydrogen sulfate], 2 µg/mL.

Still in this test, the particulars now being: test strain Pseudomonas aeruginosa FP 1380; heart infusion agar; incubation at 37° C. for 20 hours.
Consider `CC(C)(O/N=C(\C(=O)N[C@@H]1C(=O)N2C(C(=O)[O-])=C(C[n+]3cc(NC(=O)CCN)c4n3CCN4)CS[C@H]12)c1nsc(N)n1)C(=O)O` [Compound (a), 7β-[(Z)-2-(5-amino-1,2,4-thiadiazol-3-yl)-2-(1-carboxy-1-methylethoxyimino)acetamido]-3-[7-(3-aminopropionamido)-2,3-dihydro-5-(1H-imidazo[1,2-b]pyrazolio)]methyl-3-cephem-4-carboxylate], for which the “MIC (minimal inhibitory concentration)” value stood at 2 µg/mL (≈ 3.01 µM).

(Values after patent publication US7129232B2, “Cephem compounds” (Astellas Pharma Inc., priority 2002, dated 2006).)
